Experimental data taken from ChEMBL document CHEMBL1121600, “Inhibitors of phenylethanolamine N-methyltransferase and epinephrine biosynthesis. 2. 1,2,3,4-Tetrahydroisoquinoline-7-sulfonanilides” (J Med Chem, 1980).

Experiments:
Format in all cases: organism-based
[1] = target: T1, Phenylethanolamine N-methyltransferase (Mus musculus) (UniProt P40935); experiment: Phenylethanolamine N-Methyltransferase inhibition assay in a 7-day mouse study was determined by epinephrine level at 25 mg/kg dose; set-up: dose 25 mg/kg
T1 sequence (whole entry): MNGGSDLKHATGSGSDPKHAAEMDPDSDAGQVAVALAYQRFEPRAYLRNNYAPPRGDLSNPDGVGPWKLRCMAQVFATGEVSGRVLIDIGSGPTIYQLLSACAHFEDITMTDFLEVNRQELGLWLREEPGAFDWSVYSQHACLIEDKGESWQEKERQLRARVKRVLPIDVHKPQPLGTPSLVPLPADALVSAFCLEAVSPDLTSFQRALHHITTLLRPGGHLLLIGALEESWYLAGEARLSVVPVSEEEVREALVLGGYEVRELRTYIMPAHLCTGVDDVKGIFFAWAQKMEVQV

[2] = target: T2, Phenylethanolamine N-methyltransferase (Homo sapiens) (UniProt P11086); experiment: Epinephrine to norepinephrine ratio at 100 mg/kg dose; set-up: dose 100 mg/kg; settings: Oryctolagus cuniculus
T2 sequence (whole entry): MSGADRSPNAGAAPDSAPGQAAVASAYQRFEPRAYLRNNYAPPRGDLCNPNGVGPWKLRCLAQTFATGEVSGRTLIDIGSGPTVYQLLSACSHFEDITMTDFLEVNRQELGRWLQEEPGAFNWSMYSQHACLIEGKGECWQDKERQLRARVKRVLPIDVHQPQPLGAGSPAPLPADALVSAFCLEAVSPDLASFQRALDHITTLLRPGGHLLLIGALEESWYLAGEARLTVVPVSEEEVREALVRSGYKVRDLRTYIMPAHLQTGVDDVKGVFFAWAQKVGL

[3] = target: T1, Phenylethanolamine N-methyltransferase (Mus musculus); experiment: Phenylethanolamine N-Methyltransferase inhibition assay in a 7-day mouse study was determined by epinephrine level at 100 mg/kg dose; set-up: dose 100 mg/kg
[4] = target: T1, Phenylethanolamine N-methyltransferase (Mus musculus); experiment: Phenylethanolamine N-Methyltransferase inhibition assay in a 7-day mouse study was determined by epinephrine level at 50 mg/kg dose; set-up: dose 50 mg/kg

Row | SMILES | Epinephrine level [1] | Ratio [2] | Epinephrine level [3] | Epinephrine level [4]
1 | O=S(=O)(Nc1ccc(Cl)cc1)c1ccc2c(c1)CNCC2 | 8 | – | – | –
2 | O=S(=O)(Nc1ccc(Br)cc1)c1ccc2c(c1)CNCC2 | – | 2.1 | 7 | –
3 | NS(=O)(=O)c1ccc2c(c1)CNCC2 | 6.7 | – | 5.8 | 5.9
